Data reported in the METLIN SMRT retention time set (Domingo-Almenara et al. 2019).

Test: gradient 5% acetonitrile 3 min, to 50% in 2 min, to 85% in 15 min, held 3 min, 100 µL/min
Conditions: column: Zorbax Extend-C18 2.1 x 50 mm; eluents: water / acetonitrile, 0.1% formic acid
How it was run: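 Pure standards were run in mixtures of ~100 molecules by HPLC coupled to a quadrupole time-of-flight mass spectrometer. The column was a Zorbax Extend-C18 (2.1 × 50 mm, 1.8 μm) at 100 μL/min, with water and acetonitrile each containing 0.1% formic acid, in positive and negative ionization mode. Dead and dwell volumes were 40 μL and 900 μL. Retention time was taken from computationally picked adduct peaks, each manually inspected, with data collected over 3 months.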

Row | Compound | RP-LC retention time
1 | CCCNC(=O)C12CCC(C)(C(=O)C1)C2(C)C (configuration not stated) | 657 s
2 | CC1CCCN(c2ccc(-c3noc(CN4CCN(c5ccccn5)CC4)n3)cn2)C1 (configuration not stated) | 908 s
3 | Cn1cc(C2=CCN(C(=O)NC(C)(C)C)CC2)c2cccnc21 | 604 s
4 | COc1cc(NC(=O)C2CCN(S(=O)(=O)c3ccc4c(c3)sc(=O)n4C)CC2)cc(OC)c1 | 875 s
5 | COc1ccc(-c2c(C)noc2NC(C)=O)cc1S(=O)(=O)N1CCN(c2ccccn2)CC1 | 612 s
6 | CC1CCN(C(=O)c2cn(-c3cc(-c4nc(C(C)C)no4)ccn3)cn2)CC1 | 640 s
7 | CCOC(=O)c1noc2ncnc(N3CCCCCC3)c12 | 954 s
8 | COc1ccc(OC)c(CNC(=O)c2ccc3c(c2)NC(=O)C2CCCCN32)c1 (configuration not stated) | 806 s
9 | CCOC(=O)c1noc2ncnc(N3CCN(c4ccc(OC)cc4)CC3)c12 | 955 s
10 | COC(=O)C1=C(COc2ccc(C)cc2)NC(=O)NC1c1ccc(OC)c(OC)c1 (configuration not stated) | 976 s
11 | CCc1ccccc1NC(=O)N1CCN(C2=CC3=NC(CC)CN3C=N2)CC1 (configuration not stated) | 642 s
12 | COc1cccc(OCC2c3ccsc3CCN2C(=O)CN(C(C)=O)C2CC2)c1 (configuration not stated) | 807 s
13 | Cc1ccc(NC(=O)N2CCCC2c2c(C)noc2C)cc1F (configuration not stated) | 809 s
14 | O=C(NCCS(=O)(=O)N1CCN(c2ncccn2)CC1)Nc1cccs1 | 664 s
15 | Cc1ccc(CNC(=O)C2(C)CCN(C(=O)Nc3ccc4c(c3)OCCO4)CC2)cc1 | 751 s
16 | CCN(CC)CCNC(=O)c1cc(S(=O)(=O)N2CCCCC2)ccc1Cl | 637 s
17 | O=C(NC1CCCC1)C1CCCN(c2nc3ccsc3c(=O)n2Cc2ccccc2)C1 (configuration not stated) | 895 s
18 | COc1ccc(S(=O)(=O)N2CC[C@H](n3c(=O)n(C)c4cccnc43)C2)cc1 | 794 s
19 | Cc1c(-c2ccnc(N3CCN(C)CC3)n2)cnc2nc(-c3ccccc3)nn12 | 640 s
20 | CCCN1C(=O)COc2ccc(-c3csc(NC(=O)CC(C)C)n3)cc21 | 1000 s
21 | CC(C)(C)NC(=O)N1[C@H]2CC[C@@H]1c1cnc(-c3ccccc3)nc1C2 | 865 s
22 | O=C(CN1C(=O)C(C(=O)N2CCCCC2)Sc2ccccc21)NC1CCCCCC1 (configuration not stated) | 1090 s
23 | CC(C)N1CCN(S(=O)(=O)c2ccc(-c3nnc(C4CC4)o3)o2)CC1 | 611 s

Row | Compound | RP-LC retention time
24 | Cc1cc(C)cc(NC(=O)C2CCN(S(=O)(=O)c3ccc4c(c3)NC(=O)C(C)O4)CC2)c1 (configuration not stated) | 903 s
25 | COc1ccc(OC)c(S(=O)(=O)N2CCC3(C2)C(=O)N(C)c2ccccc23)c1 (configuration not stated) | 853 s
26 | CCOc1ccc(Br)cc1C(=O)N1CCNC(=O)C1CC(=O)OC1CCCCC1 (configuration not stated) | 876 s
27 | CCC(C)NS(=O)(=O)c1ccc(-c2c(C)noc2C)cc1 (configuration not stated) | 936 s
28 | Cc1ccccc1NC(=O)C1CCCN(C(=O)c2nn(C)c3c2CN(C(=O)C(C)(C)C)CC3)C1 (configuration not stated) | 802 s
29 | CCn1c(=O)c2c(cc(C)n2C)n(CC(=O)Nc2cc(Cl)ccc2C)c1=O | 810 s
30 | CCC(=O)Nc1ccc2c(c1)CCC(=O)N2CCOC | 618 s
31 | Cc1cccc(N2CCN(C(=O)Cn3ccc4ccc(N5CCOCC5)nc43)CC2)c1 | 959 s
32 | Cn1nc(-c2nc(C3CC3)no2)c2c1CCN(C(=O)c1ccc(F)c(F)c1)C2 | 831 s
33 | COc1cccc(-c2nc3sc(C(=O)N4CCOCC4)c(C)n3c2NC(C)(C)C)c1 | 795 s
34 | CCOc1ccc(CCNC(=O)C2CCCN(C(=O)c3cc4sccc4n3CC)C2)cc1OCC (configuration not stated) | 951 s
35 | CCOc1cc(C(=O)N2CCN(c3c(C)n(C)c(=O)n(C)c3=O)CC2)cc(OCC)c1OCC | 810 s
36 | CN(C1CCc2nn(CC3CC3)c(=O)n2CC1)S(=O)(=O)c1ccccc1F (configuration not stated) | 706 s
37 | Cc1c(S(=O)(=O)NCc2ccc3c(c2)CCN3C(=O)CC(C)C)cnn1C(F)F | 911 s
38 | COC1C(=O)N(CC2CC2)C12CCN(C(=O)C1CC1)CC2 (configuration not stated) | 639 s
39 | CCc1ccc(CNC(=O)CC2CCN(C(=O)c3[nH]c(C)cc3C)CC2)cc1 | 857 s
40 | O=C(c1ccc(F)cc1F)N1CCN(c2nc(CN3CCCC3)cs2)CC1 | 613 s
41 | Cc1csc(-c2ccc(N3CCN(C(=O)c4ccc(F)cc4)CC3)nc2)n1 | 820 s
42 | Cc1ccc(CNC(=O)C2CCN(S(=O)(=O)c3c(C)[nH]c(C)c3C(=O)N3CCCC3)CC2)o1 | 679 s
43 | CCOc1ccc(S(=O)(=O)N2CCC(C(=O)N3CCc4ccccc4C3)CC2)cc1 | 985 s
44 | CCC(=O)Nc1ccc(N(C)CCc2c(C)nn(C)c2C)c(C(=O)O)c1 | 572 s
45 | CC1=C(c2ccc(C)c(C)c2)S(=O)(=O)N=C1N1CCCN(C(=O)CC(C)C)CC1 | 915 s

Other lines, results leading:

Row | RP-LC retention time | Compound
46 | 1210 s | Cc1cccc(-c2nnc(-c3cc(S(=O)(=O)N4CCCCC4)ccc3Cl)o2)c1
47 | 721 s | CC(=O)N1CCC2(CC1)OC(=O)C(C)=C2C(=O)NCc1ccccc1Br
48 | 828 s | CC(C(=O)Nc1ccccc1C(F)(F)F)N1C(=O)c2ccccc2S1(=O)=O (configuration not stated)
49 | 931 s | O=C(CN1CCN(Cc2cccc(Cl)c2)C1=O)NCc1ccc(C(F)(F)F)cc1
50 | 998 s | CC(C)Oc1cccc(NC(=O)C2CCN(S(C)(=O)=O)c3cc(Cl)ccc3O2)c1 (configuration not stated)
51 | 1010 s | Cc1cc(C(=O)Nc2ccc(Br)cc2F)n(-c2ccccc2)n1
52 | 905 s | CCn1c(=O)sc2cc(S(=O)(=O)N3CCC(C(=O)NCc4ccccc4Cl)CC3)ccc21
53 | 734 s | Cc1nnc2c(=O)n(CC(=O)NCc3ccccc3C(F)(F)F)c3cccnc3n12
54 | 888 s | Cc1noc(-c2cc(=O)n(CC(=O)NCc3ccc(Cl)cc3)c3ccccc23)n1
55 | 884 s | O=C(NCc1ccc2c(c1)CCCN2C(=O)C1CCC1)c1cc(F)ccc1Cl
56 | 654 s | O=C(Cc1c(Sc2ccccc2)[nH]c2ccccc12)NCCN1CCOCC1
57 | 667 s | COc1ccc(Cl)cc1NC(=O)NCc1ccnc(N2CCSCC2)c1
58 | 889 s | COc1ccc(NC(=O)Cc2csc3nc(-c4cccc(Cl)c4)cn23)cc1
59 | 1090 s | Cc1ccc(Cn2cccc2C(=O)C(=O)Nc2ccc3c(c2)OCCO3)cc1
60 | 1100 s | C=CCn1c(=O)c2ccccc2n(Cc2nc(-c3ccc(SC)cc3)no2)c1=O
61 | 608 s | CCN(CCNS(=O)(=O)c1ccc2c(c1)CCCC(=O)N2)Cc1ccccc1
62 | 702 s | COCCNc1c(-c2ccc(F)cc2)nc2sc(C(=O)N(C)C)c(C)n12
63 | 863 s | O=C(NC1(c2nc(-c3ccncc3)no2)CCCCC1)c1ccccc1
64 | 961 s | Cc1nc(-c2ccc(Cl)cc2)sc1C(=O)N1CCN(c2ncccn2)CC1
65 | 1030 s | Cc1ccc(Cl)cc1NC(=O)N1CCc2nc(-c3ccc(F)cc3)ncc2C1
66 | 723 s | COc1ccccc1NC(=O)NC(C(=O)N1CCc2ccccc21)C(C)C (configuration not stated)

Row | RP-LC retention time | Compound
67 | 1010 s | Cc1oc(-c2ccccc2)nc1Cn1cnc2nc3c(cc2c1=O)CC(C)CC3 (configuration not stated)
68 | 860 s | CCOc1cccc(-c2noc(Cn3ncn4nc(-c5ccc(F)cc5)cc4c3=O)n2)c1
69 | 746 s | Cc1cc(F)ccc1NC(=O)Cn1nc2cc(-c3ccccn3)nc(C)n2c1=O
70 | 803 s | CCOC(=O)C1CCCN(C(=O)CCC(=O)N2CCCn3nc(-c4cn(C)c5ccccc45)cc32)C1 (configuration not stated)
71 | 658 s | CC1CCCCN1Cc1nc(Cn2ccn3nc(-c4ccccc4)cc3c2=O)no1 (configuration not stated)
72 | 856 s | CCOc1ccc(-c2noc(CSc3nccn3-c3ccccc3)n2)cc1OC
73 | 895 s | O=C(Cn1c(=O)n(C2CCCCC2)c2ncccc21)NCc1ccccc1
74 | 789 s | COc1ccc(N2C=C(C(=O)N3CCOCC3)S(=O)(=O)c3ccccc32)cc1Cl
75 | 556 s | O=C(Cc1cccs1)NCCCN1CCOC(c2ccccc2)C1 (configuration not stated)
76 | 677 s | CSc1cccc(NC(=O)NCC(c2cccnc2)c2c[nH]c3ccccc23)c1 (configuration not stated)
77 | 952 s | Cc1ccc(Cn2nc3n(Cc4ccc(F)cc4)c(=O)c4nn(C)cc4n3c2=O)cc1
78 | 889 s | Cn1cc(C2=CCN(S(=O)(=O)c3cccc4cccnc34)CC2)c2cccnc21
79 | 943 s | CCCn1cc(S(=O)(=O)Nc2cccc(CC)c2)c2cccnc21
80 | 1050 s | COCCn1cc(C(=O)Nc2cccc(Cl)c2)c2nn(-c3ccccc3)c(=O)c-2c1
81 | 1070 s | O=C(c1ccc(Cl)s1)N1CCc2nc(-c3ccc(F)cc3)ncc2C1
82 | 618 s | COc1cccc(CC(=O)NCC(=O)Nc2nc3ccccc3[nH]2)c1
83 | 710 s | CCc1ccc(NC(=O)NCC(c2cccnc2)c2c[nH]c3ccccc23)cc1 (configuration not stated)
84 | 1140 s | Cc1cccc(Sc2nccnc2N2CCC(C(=O)NCCCc3ccccc3)CC2)c1
85 | 769 s | Cc1noc2ncn(CC(=O)NCc3ccc(Cl)cc3)c(=O)c12
86 | 755 s | O=C(Cn1cc(-c2nnco2)c2ccccc21)NCc1ccccc1F
87 | 616 s | O=C(NCCn1nnc2cc(C(=O)N3CCCC3)ccc21)Nc1ccccc1
